Data from patent US20080051379A1, “Compositions and Methods for the Treatment of Peripheral B-Cell Neoplasms” (Trustees of Boston University, priority 2004, published 2008).

Columns and labels:
Type in all cases: cell-based, human
[1] = test system: GRE luciferase constructs transiently transfected into B-CLL cells; assay: GRE luciferase transactivation in B-CLL cells
Description: B-CLL cells (FIG. 3A) or CCRF-CEM cells (FIG. 3B) were transiently transfected with a luciferase construct in which expression is regulated by GRE elements, followed by culture in 10 μM rolipram (R), 40 μM forskolin (Fsk), 1 μM hydrocortisone (HC), 1 mM Rp-8Br-cAMPS (Rp-8Br) or combinations of these agents. 12 hours after addition of the drugs, the relative luminescence of the samples was determined. The data shown are the mean of 8 experiments for B-CLL and two experiments for CCRF-CEM cells. The single asterisk denote a significant difference by paired student's t test between HC alone and either R/HC (FIG. 3A) or F/HC (FIG. 3B) (p<0.02). The double asterisk denotes a significant difference between Rp-8Br-cAMPS/HC and HC alone (p<0.02).
An MMTV GRE luciferase construct, originally created by Dr. R. Evans, was a gift from Dr. Remco Spanjaard (Dept. of Otolaryngology, Boston Medical Center)^29. 100 million B CLL cells in 200 μl of PBS were added to 500 μl of Nucleofector Solution D containing 30 μg of endotoxin-free (Qiagen) MMTV luciferase constructs. 100 μl was used per transfection using a Nucleofector electroporation instrument (Amaxa Biosystems, Koeln, Germany) using program U16. […] Up to six such aliquots of transfected cells were diluted in media and pooled, prior to distribution of 8 million cells/well in 48 well plates. Two hours after transfection, drugs, cytokines or vehicle alone were added to the transfected cells. 14 hours after transfection, samples were processed using a luciferase assay kit (Promega). Triplicate samples were analyzed with an MGM Instruments Optocomp I luminometer (Hamden, Conn.). Analysis of cell viability (trypan blue exclusion) and total protein (Pierce) verified that equivalent numbers of viable B-CLL cells were analyzed. 100 million CCRF-CEM cells were similarly transfected, cultured and analyzed except that Nucleofector program O17 was utilized. […] Data were analyzed using a two-sided paired t test for means.

[2] = test system: cAMP levels in CCRF-CEM cells; assay: cAMP RIA, CCRF-CEM cells; conditions: 30 minutes, 10 μM rolipram, 10 μM forskolin, 1 μM hydrocortisone, three experiments
Description: (§1) Leukemic cells from six B-CLL patients or CCRF-CEM cells were incubated for 30 minutes with media alone (CT), 10 μM rolipram (Roli), 10 μM forskolin (Fsk), 1 μM hydrocortisone (HC), or the same concentration of hydrocortisone combined with rolipram (Roli/HC) or forskolin (Fsk/HC). Lysates of the cells were then assayed for cAMP using a RIA. The cAMP level obtained from each treated B-CLL sample was normalized to that observed in the untreated leukemic cells. The CCRF-CEM data shown are representative of three experiments performed.
(§2) 500,000 B-CLL or CCRF-CEM cells were incubated for 30 minutes in one mL media alone or with the addition of drugs. Cells were centrifuged and lysed in 80% ethanol. After vortexing and incubation on ice for 10 minutes, cellular debris was removed by re-centrifugation. The supernatant was dried in a Speedivac and the sample brought up in 250 μL of sample buffer as provided by the makers of a cAMP RIA kit (Amersham). 100 μL of this sample was used for each cAMP assay. The RIA kit was used according to the manufacturer's instructions.

[3] = test system: cAMP levels in B-CLL cells; assay: cAMP RIA, B-CLL cells; conditions: 10 μM rolipram for 30 minutes; six B-CLL patients; p<0.04
Description: as §1, §2

[4] = test system: glucocorticoid-resistant subclone (CEM-R8); assay: MTS cell survival assay, CEM-R8; conditions: dexamethasone-resistant CCRF-CEM cells; 10 μM, 72 hours
Description: In FIG. 5A, the polyclonal parental cell line (CCRF-CEM), the single cell-derived glucocorticoid-resistant subclone (CEM-R8) and the single cell-derived glucocorticoid-sensitive subclone (CEM-S2) were cultured for 72 hours in the presence of vehicle (ETOH) or dexamethasone at the concentrations indicated and cell viability was assessed by the MTS assay as described in Methods. In FIG. 5B, the glucocorticoid-resistant subclone (CEM-R8) and the glucocorticoid-sensitive subclone (CEM-S2) were cultured for 72 hours in the presence of hydrocortisone (HC) (10 μM HC for the CEM-R8 cells and 1 μM HC for the CEM-S2 cells), 10 μM forskolin (Fsk), 10 μM rolipram (Rol), or combinations of these agents as indicated, and cell viability was assessed by the MTS assay as described in Methods. FIG. 5C: The glucocorticoid-resistant subclone (CEM-R8) and the glucocorticoid-sensitive subclone (CEM-S2) were cultured for 72 hours in the presence of varying amounts of dibutyryl cAMP (db-cAMP) in the absence (−HC) or presence (+HC) of 1 μM hydrocortisone as indicated, and cell viability was assessed by the MTS assay as described in Methods. […]
Hoechst 33342 and DiOC6(3) apoptosis assays were performed as previously described^22,28. […] The absorbance (O.D.) of the formazan product was determined at 492 nm using a plate reader (Titertek Multiscan Plus, Labsystems). […]

SMILES: COc1ccc(C2CNC(=O)C2)cc1OC1CCCC1 (centres unmarked) [rolipram, 4-(3-cyclopentyloxy-4-methoxyphenyl)-2-pyrrolidone]
- augmentation of hydrocortisone-induced transactivation (average) ([1]; 10 μM rolipram + 1 μM hydrocortisone, 5 patients, p<0.02): 33%
- augmentation of GRE transactivation by rolipram itself ([1]; 10 μM rolipram alone, 7/8 experiments, not statistically significant (p<0.23)): 10%
- effect on cAMP levels [2]: no effect
- cAMP levels above that observed in untreated cells [3]: 2.5±0.7 fold
- effect on cell viability as single agent [4]: no discernable effect
